# Data: patent publication US6500853B1, “Inhibitors of phospholipase enzymes” (Genetics Institute, LLC, priority 1998, dated 2002)
# Molecular target: T1, cPLA2 (Homo sapiens, UniProt P47712)
# T1 sequence (P47712 1-749): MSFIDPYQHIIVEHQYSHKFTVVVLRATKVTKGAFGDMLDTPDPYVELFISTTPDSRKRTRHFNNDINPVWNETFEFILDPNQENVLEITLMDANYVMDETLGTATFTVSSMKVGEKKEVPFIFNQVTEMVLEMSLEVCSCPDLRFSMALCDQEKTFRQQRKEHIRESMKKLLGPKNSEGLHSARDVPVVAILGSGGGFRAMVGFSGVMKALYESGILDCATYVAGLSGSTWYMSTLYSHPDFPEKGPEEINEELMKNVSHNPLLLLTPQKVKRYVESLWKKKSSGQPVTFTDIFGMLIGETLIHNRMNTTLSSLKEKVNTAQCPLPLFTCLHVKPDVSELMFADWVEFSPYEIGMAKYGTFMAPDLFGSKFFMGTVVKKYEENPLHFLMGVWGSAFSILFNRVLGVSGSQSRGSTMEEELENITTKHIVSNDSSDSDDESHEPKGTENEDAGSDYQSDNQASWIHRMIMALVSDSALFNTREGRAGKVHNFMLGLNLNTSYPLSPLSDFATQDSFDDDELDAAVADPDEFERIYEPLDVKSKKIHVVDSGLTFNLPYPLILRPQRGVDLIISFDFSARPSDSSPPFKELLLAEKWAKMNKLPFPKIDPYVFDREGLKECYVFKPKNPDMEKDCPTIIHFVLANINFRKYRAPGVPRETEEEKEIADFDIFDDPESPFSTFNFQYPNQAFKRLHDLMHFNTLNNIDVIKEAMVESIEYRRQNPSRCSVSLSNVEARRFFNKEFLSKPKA
# Assay: Coumarin Assay (cPLA2 inhibition)
# Type: biochemical
# Details: for inhibition at 10 µM: CONCENTRATION 10 micromolar; for inhibition at 12.5 µM: CONCENTRATION 12.5 micromolar; for inhibition at 70 µM: CONCENTRATION 70 micromolar
# Description: Table I reports data for the compounds described in the examples above in cPLA2 inhibition assays (described below). In the data columns of Tables I and II, assay results are reported as a percent inhibition at the concentration specified.
# 7-hydroxycoumarinyl 6-heptenoate was used as a monomeric substrate for cPLA2 as reported previously (Huang, Z. et al., 1994, Nalytical Biochemistry 222, 110-115). Inhibitors were mixed with 200 μL assay buffer (80 mM Heped, pH 7.5, 1 mM EDTA) containing 60 μM 7-hydroxycoumarinyl 6-heptenoate. The reaction was initiated by adding 4 μg cPLA2 in 50 μL assay buffer. Hydrolysis of the 7-hydroxycounarimyl 6-heptenoate ester was monitored in a fluorometer by exciting at 360 nm and monitoring emission at 460 nm. Enzyme activity is proportional to the increase in emission at 460 nm per minute. In the presence of a cPLA2 inhibitor, the rate of increase is less. The percent inhibition for corresponding concentrations of compounds herein in this Coumarin assay are provided below in Table I.
# [1] = CONCENTRATION 50 micromolar, read-out: PERCENT INHIBITION @
smiles,measurement,setting,value
"COc1cc(C(=O)NS(=O)(=O)c2nnc(NC(C)=O)s2)ccc1Cc1cn(C(c2ccccc2)c2ccccc2)c2ccc(NC(=O)OC3CCCC3)cc12 [Example 34, cyclopentyl N-(3-{4-[({[5-(acetylamino)-1,3,4-thiadiazol-2-yl]sulfonyl}amino)carbonyl]-2-methoxybenzyl}-1-benzhydryl-1H-indol-5-yl)carbamate]",inhibition at 2 µM,"CONCENTRATION 2 micromolar, read-out: PERCENT INHIBITION @",50%
same,inhibition at 2.5 µM,"CONCENTRATION 2.5 micromolar, read-out: PERCENT INHIBITION @",57%
"COc1cc(C(=O)NS(=O)(=O)c2ccc(N3N=C(C)CC3=O)cc2)ccc1Cc1cn(C(c2ccccc2)c2ccccc2)c2ccc(NC(=O)OC3CCCC3)cc12 [Example 35, cyclopentyl N-(1-benzhydryl-3-{2-methoxy-4[({[4-(3-methyl-5-oxo-4,5-dihydro-1H-pyrazol-1-yl)phenyl]sulfonyl}amino)carbonyl]benzyl}-1H-indol-5-yl)carbamate]",inhibition at 10 µM,read-out: PERCENT INHIBITION @,23%
same,inhibition at 20 µM,"CONCENTRATION 20 micromolar, read-out: PERCENT INHIBITION @",42%
same,inhibition at 41 µM,"CONCENTRATION 41 micromolar, read-out: PERCENT INHIBITION @",50%
"COc1cc(C(=O)NS(=O)(=O)c2ccccc2C)ccc1Cc1cn(C(c2ccccc2)c2ccccc2)c2ccc([N+](=O)[O-])cc12 [Example 36, N-{4-[(1-benzhydryl-5-nitro-1H-indol-3-yl)methyl]-3-methoxybenzoyl}-2-methylbenzenesulfonamide]",inhibition at 0.22 µM,"CONCENTRATION 0.22 micromolar, read-out: PERCENT INHIBITION @",50%
same,inhibition at 0.25 µM,"CONCENTRATION 0.25 micromolar, read-out: PERCENT INHIBITION @",60%
same,inhibition at 0.32 µM,"CONCENTRATION 0.32 micromolar, read-out: PERCENT INHIBITION @",50%
same,inhibition at 0.45 µM,"CONCENTRATION 0.45 micromolar, read-out: PERCENT INHIBITION @",50%
"COc1cc(C(=O)NS(=O)(=O)c2ccccc2C)ccc1Cc1cn(C(c2ccccc2)c2ccccc2)c2ccc(NC(=O)C3CCCC3)cc12 [Example 43, N-{1-benzhydryl-3-[2-methoxy-4-({[(2-methylphenyl)sulfonyl]amino}carbonyl)benzyl]-1H-indol-5-yl}cyclopentanecarboxamide]",inhibition at 12 µM,"CONCENTRATION 12 micromolar, read-out: PERCENT INHIBITION @",50%
same,inhibition at 14 µM,"CONCENTRATION 14 micromolar, read-out: PERCENT INHIBITION @",50%
"O=C(Nc1cccc(C(=O)O)c1)C(=O)c1cn(Cc2ccc(COc3cc(C(F)(F)F)cc(C(F)(F)F)c3)cc2)c2ccccc12 [Example 60, 3-({2-[1-(4-{[3,5-bis(trifluoromethyl)phenoxy]methyl}benzyl)-1H-indol-3yl]-2oxoacetyl}amino)benzoic acid]",inhibition at 12.5 µM,read-out: PERCENT INHIBITION @,50%
"O=C(Nc1cccc(C(=O)O)c1)C(=O)c1cn(CCCOc2ccc(Cc3ccccc3)cc2)c2ccccc12 [Example 62, 3-[(2-{1-[3-(4-benzylphenoxy)propyl]-1H-indol-3-yl}-2-oxoacetyl)amino]benzoic acid]",inhibition at 7 µM,"CONCENTRATION 7 micromolar, read-out: PERCENT INHIBITION @",50%
same,inhibition at 12.5 µM,read-out: PERCENT INHIBITION @,86%
"O=C(Nc1cccc(C(=O)O)c1)C(=O)c1cn(Cc2ccccc2S(=O)(=O)Cc2ccccc2)c2ccccc12 [Example 64, 3-[(2-{1-[2-(benzylsulfonyl)benzyl]-1H-indol-3-yl}-2-oxoacetyl)amino]benzoic acid]",inhibition at 32 µM,"CONCENTRATION 32 micromolar, read-out: PERCENT INHIBITION @",50%
same,inhibition at 37 µM,"CONCENTRATION 37 micromolar, read-out: PERCENT INHIBITION @",50%
"O=C(O)C(=O)c1cn(Cc2ccc(Cc3ccccc3)cc2)c2ccc(OCc3ccccc3)cc12 [Example 69, 2-[1-(4-benzylbenzyl)-5-(benzyloxy)-1H-indol-3-yl]-2-oxoacetic acid]",inhibition at 12.5 µM,read-out: PERCENT INHIBITION @,50%
"O=C(O)C(=O)c1cn(Cc2ccc(C(F)(F)F)cc2C(F)(F)F)c2ccc(OCc3ccccc3)cc12 [Example 70, 2-{5-(benzyloxy)-1-[2,4-bis(trifluoromethyl)benzyl]-1H-indol3-yl}-2-oxoacetic acid]",PERCENT INHIBITION @,CONCENTRATION 50 micromolar,40%
same,inhibition at 50 µM,[1],39%
"O=C(Nc1cccc(C(=O)O)c1)C(=O)c1cn(Cc2ccc(Cc3ccccc3)cc2)c2ccc(OCc3ccccc3)cc12 [Example 71, 3-({2-[1-(4-benzylbenzyl)-5-(benzyloxy)-1H-indol-3-yl]-2-oxoacetyl}amino)benzoic acid]",inhibition at 1.5 µM,"CONCENTRATION 1.5 micromolar, read-out: PERCENT INHIBITION @",50%
same,inhibition at 3.5 µM,"CONCENTRATION 3.5 micromolar, read-out: PERCENT INHIBITION @",50%
same,inhibition at 3.8 µM,"CONCENTRATION 3.8 micromolar, read-out: PERCENT INHIBITION @",50%
same,inhibition at 6 µM,"CONCENTRATION 6 micromolar, read-out: PERCENT INHIBITION @",69%
"O=C(Nc1cc(C(=O)O)cc(C(=O)O)c1)C(=O)c1cn(Cc2ccc(C(F)(F)F)cc2C(F)(F)F)c2ccc(OCc3ccccc3)cc12 [Example 72, 5-[(2-{5-(benzyloxy)-1-[2,4-bis(trifluoromethyl)benzyl]-1H-indol-3-yl}-2-oxoacetyl)amino]isophthalic acid]",inhibition at 12.5 µM,read-out: PERCENT INHIBITION @,50%
"O=C(O)Cc1cn(CC2CC2)c2ccc(Br)cc12 [Example 77, 2-[5-bromo-1-(cyclopropylmethyl)-1H-indol-3-yl]acetic acid]",inhibition at 160 µM,"CONCENTRATION 160 micromolar, read-out: PERCENT INHIBITION @",50%
same,inhibition at 180 µM,"CONCENTRATION 180 micromolar, read-out: PERCENT INHIBITION @",50%
"O=C(O)Cc1cn(CC2CC2)c2ccc(-c3cccs3)cc12 [Example 78, 2-[1-(cyclopropylmethyl)-5-(2-thienyl)-1H-indol-3-yl]acetic acid]",inhibition at 80 µM,"CONCENTRATION 80 micromolar, read-out: PERCENT INHIBITION @",50%
same,inhibition at 110 µM,"CONCENTRATION 110 micromolar, read-out: PERCENT INHIBITION @",50%
"O=C(O)Cc1cn(CC2CC2)c2ccc(-c3cccc(C(F)(F)F)c3)cc12 [Example 79, 2-{1-(cyclopropylmethyl)-5-[3-(trifluoromethyl)phenyl]-1H-indol-3-yl}acetic acid]",inhibition at 60 µM,"CONCENTRATION 60 micromolar, read-out: PERCENT INHIBITION @",50%
same,inhibition at 65 µM,"CONCENTRATION 65 micromolar, read-out: PERCENT INHIBITION @",50%
"O=C(O)Cc1cn(Cc2ccccc2)c2ccc(-c3ccccc3)cc12 [Example 81, 2-(1-benzyl-5-phenyl-1H-indol-3-yl)acetic acid]",inhibition at 70 µM,read-out: PERCENT INHIBITION @,50%
same,inhibition at 100 µM,"CONCENTRATION 100 micromolar, read-out: PERCENT INHIBITION @",46%
"O=C1NC(=O)/C(=C\c2cn(CCCOc3cccc(Cc4ccccc4)c3)c3ccccc23)S1 [Example 82A, 5-((E)-{1-[3-(3-benzylphenoxy)propyl]-1H-indol-3-yl}methylidene)-1,3-thiazolane-2,4-dione]",inhibition at 46 µM,"CONCENTRATION 46 micromolar, read-out: PERCENT INHIBITION @",50%
same,inhibition at 50 µM,[1],50%
"O=C(O)CN1C(=O)S/C(=C/c2cn(CCCOc3cccc(Cc4ccccc4)c3)c3ccccc23)C1=O [Example 82C, 2-[5-((E)-{1-[3-(3-benzylphenoxy)propyl]-1H-indol-3-yl}methylidene)-2,4-dioxo-1,3-thiazolan-3-yl]acetic acid]",inhibition at 8 µM,"CONCENTRATION 8 micromolar, read-out: PERCENT INHIBITION @",50%
same,inhibition at 10 µM,read-out: PERCENT INHIBITION @,50%
"O=C(O)CCc1cn(CCCOc2cccc(Cc3ccccc3)c2)c2ccccc12 [Example 83, 3-{1-[3-(3-benzylphenoxy)propyl]-1H-indol-3-yl}propanoic acid]",inhibition at 48 µM,"CONCENTRATION 48 micromolar, read-out: PERCENT INHIBITION @",50%
same,inhibition at 70 µM,read-out: PERCENT INHIBITION @,50%
"Cc1c(Cc2ccc(C(=O)O)cc2)c2cc(Cl)ccc2n1C(c1ccccc1)c1ccccc1 [Example 88, 4-[(1-benzhydryl-5-chloro-2-methyl-1H-indol-3-yl)methyl]benzoic acid]",PERCENT INHIBITION @,CONCENTRATION 1.25 micromolar,53%
same,inhibition at 1.25 µM,"CONCENTRATION 1.25 micromolar, read-out: PERCENT INHIBITION @",50%
same,inhibition at 1.32 µM,"CONCENTRATION 1.32 micromolar, read-out: PERCENT INHIBITION @",50%
